Experimental data taken from PubChem BioAssay (NCI).
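Step 1: Grow cells in 96-well plates. Step 2: Expose to compound for 48 hours at 5 concentrations. Step 3: Interpolate endpoints linearly; if unreached, use highest concentration. TGI is the concentration that stops growth completely.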

The compounds below were run on SK-OV-3 ovarian (assay: NCI tumour cell line growth inhibition, 48 h).

| Structure (SMILES) | TGI [µM] |
| --- | --- |
| Cc1ccc(NC(=O)c2ccc(OP(=O)(O)Nc3ccc(C)cc3)cc2)cc1 | > 100 |
| Cc1ccc(NC(=O)CC2Sc3ccccc3NC2=O)cc1C (centres undefined) | > 100 |
| Cc1ccnc(NS(=O)(=O)c2ccc(N=[N+]=[N-])cc2)n1 | > 100 |
| Cc1ccccc1C(=N)c1ccccc1Cc1cccc2ccccc12 | 98.9 |
| CCC(=O)NC(Nc1cc(C)on1)(C(F)(F)F)C(F)(F)F | > 100 |
| Cc1ccccc1OC(C)C(=O)NN1C(=O)CSC1c1ccccc1 (centres undefined) | > 100 |
| O=C1C=C[C@@H](COC2OC(CO)C(O)C(O)C2O)O1 (some centres undefined) | > 100 |
| CC(C)=CCC[C@@H](C)c1c(O)c(O)c(C)c2nccnc12 | > 100 |
| O=C(OCc1ccccc1)N1CCNCCN(C(=O)OCc2ccccc2)CCNCC1 | > 100 |
| COC(=O)C1=C(C(=O)OC)SC(=C2SCSC3=C2SC(C(=O)OC)=C(C(=O)OC)C32SC3=C(CCCC3)S2)S1 | > 100 |
| COc1nncc2[nH]c(-c3ccccc3)cc12 | > 100 |
| O=S(=O)(c1ccccc1)c1cccc2c1NCCC2 | > 10 |
| COP(=O)(OC)C1=c2c(C)noc2=C2C=COC2C1=O (centres undefined) | > 100 |
| CCOC(=O)N1CCN(Cc2cc(=O)n3ccc(C)cc3n2)CC1 | > 100 |
| COc1cccc(C2SC(N)=Nc3c2c(C)nn3C(=O)c2ccccc2O)c1 (centres undefined) | > 10 |
| N#CC(NCc1cccc(CNC(C#N)c2ccccc2)c1)c1ccccc1 (centres undefined) | > 100 |

These compounds were tested on SR leukemia (assay: NCI tumour cell line growth inhibition, 48 h).

| Structure (SMILES) | TGI [µM] |
| --- | --- |
| CCCCCC1=CC(=O)C1(Cl)Cl | 19.4 |
| CC(=O)N1C(C(=O)NC2CCCCC2)CSC1c1ccccc1 (centres undefined) | > 100 |
| CC1(C)O[C@H]2OC(CO[Si](C)(C)C(C)(C)C)C(N=[N+]=[N-])[C@H]2O1 (some centres undefined) | 32.2 |
| O=[N+]([O-])c1ccc(Cl)cc1N/N=C/c1ccnc2ccccc12 | > 100 |
| CC(C)c1cc2c(cc1S(=O)(=O)O)[C@@]1(C)CCC[C@@](C)(C(=O)O)C1CC2 (some centres undefined) | > 100 |
| C/C(=C\CBr)CCC(Br)C(C)(C)Br (centres undefined) | > 100 |
| Oc1ccc(Cc2cc(Cc3ccc(O)cc3)cc(Cc3ccc(O)cc3)c2)cc1 | > 50 |
| CC(=O)c1c2c(c3ccccc3c1O)O[C@@H]1OCC[C@H]21 | > 100 |
| C[C@]12CC[C@H](O)CC1=CC[C@@H]1[C@@H]2CC[C@]2(C)C(=N/N)/C(=N\O)C[C@@H]12 | > 100 |
| CC(=O)Oc1cccc2c1C(=O)CCCC2 | > 100 |
| O=C(c1ccccn1)C1(N2CCCCC2)CCCCC1 | > 100 |
| CCN(CC)C(=S)N/N=C/c1cc([N+](=O)[O-])ccc1O | 25.6 |
| Cc1ccc(NC(=O)c2ccc(OP(=O)(O)Nc3ccc(C)cc3)cc2)cc1 | > 100 |
| Cc1ccc(NC(=O)CC2Sc3ccccc3NC2=O)cc1C (centres undefined) | > 100 |
| Cc1ccnc(NS(=O)(=O)c2ccc(N=[N+]=[N-])cc2)n1 | > 100 |
| Cc1ccccc1C(=N)c1ccccc1Cc1cccc2ccccc12 | 41.2 |
| CCC(=O)NC(Nc1cc(C)on1)(C(F)(F)F)C(F)(F)F | > 100 |
| Cc1ccccc1OC(C)C(=O)NN1C(=O)CSC1c1ccccc1 (centres undefined) | 48.8 |
| CC(C)=CCC[C@@H](C)c1c(O)c(O)c(C)c2nccnc12 | > 100 |
| O=C(OCc1ccccc1)N1CCNCCN(C(=O)OCc2ccccc2)CCNCC1 | > 100 |
| COC(=O)C1=C(C(=O)OC)SC(=C2SCSC3=C2SC(C(=O)OC)=C(C(=O)OC)C32SC3=C(CCCC3)S2)S1 | > 100 |
| COc1nncc2[nH]c(-c3ccccc3)cc12 | > 100 |
| O=S(=O)(c1ccccc1)c1cccc2c1NCCC2 | > 100 |
| COP(=O)(OC)C1=c2c(C)noc2=C2C=COC2C1=O (centres undefined) | > 100 |
| CCOC(=O)N1CCN(Cc2cc(=O)n3ccc(C)cc3n2)CC1 | > 100 |
| COc1cccc(C2SC(N)=Nc3c2c(C)nn3C(=O)c2ccccc2O)c1 (centres undefined) | > 7.36 |
| N#CC(NCc1cccc(CNC(C#N)c2ccccc2)c1)c1ccccc1 (centres undefined) | > 100 |

These compounds were tested on HOP-62 NSCLC (assay: NCI tumour cell line growth inhibition, 48 h).

| Structure (SMILES) | TGI [µM] |
| --- | --- |
| COc1ccc2[nH]cc(/C=C(/C)c3ccncc3)c2c1 | 53.8 |
| COC(=O)[C@@H](O)[C@](O)(CCC(C)C)C(=O)O[C@@H]1C(OC)=C[C@]23CCCN2CCc2cc4c(cc2[C@H]13)OCO4 | 4.75 |
| CCCCCC1=CC(=O)C1(Cl)Cl | 48.8 |
| CC(=O)N1C(C(=O)NC2CCCCC2)CSC1c1ccccc1 (centres undefined) | > 100 |
| CC1(C)O[C@H]2OC(CO[Si](C)(C)C(C)(C)C)C(N=[N+]=[N-])[C@H]2O1 (some centres undefined) | 34.1 |
| O=[N+]([O-])c1ccc(Cl)cc1N/N=C/c1ccnc2ccccc12 | > 100 |
| CC(C)c1cc2c(cc1S(=O)(=O)O)[C@@]1(C)CCC[C@@](C)(C(=O)O)C1CC2 (some centres undefined) | > 100 |
| COc1ccc2cc1Oc1ccc(cc1)C[C@H]1c3cc(c(OC)cc3CCN1C)Oc1c(O)c(OC)cc3c1[C@H](C2)N(C)CC3 | 65.7 |
| C/C(=C\CBr)CCC(Br)C(C)(C)Br (centres undefined) | > 100 |
| Oc1ccc(Cc2cc(Cc3ccc(O)cc3)cc(Cc3ccc(O)cc3)c2)cc1 | > 50 |
| CC(=O)c1c2c(c3ccccc3c1O)O[C@@H]1OCC[C@H]21 | > 100 |
| C[C@]12CC[C@H](O)CC1=CC[C@@H]1[C@@H]2CC[C@]2(C)C(=N/N)/C(=N\O)C[C@@H]12 | > 100 |
| CC(=O)Oc1cccc2c1C(=O)CCCC2 | > 100 |
| O=C(c1ccccn1)C1(N2CCCCC2)CCCCC1 | > 100 |
| CCN(CC)C(=S)N/N=C/c1cc([N+](=O)[O-])ccc1O | > 100 |
| Cc1ccc(NC(=O)c2ccc(OP(=O)(O)Nc3ccc(C)cc3)cc2)cc1 | > 100 |

| Structure (SMILES) | TGI [µM] |
| --- | --- |
| Cc1ccc(NC(=O)CC2Sc3ccccc3NC2=O)cc1C (centres undefined) | > 100 |
| Cc1ccnc(NS(=O)(=O)c2ccc(N=[N+]=[N-])cc2)n1 | > 100 |
| Cc1ccccc1C(=N)c1ccccc1Cc1cccc2ccccc12 | 43.5 |
| CCC(=O)NC(Nc1cc(C)on1)(C(F)(F)F)C(F)(F)F | > 100 |
| Cc1ccccc1OC(C)C(=O)NN1C(=O)CSC1c1ccccc1 (centres undefined) | > 100 |
| O=C1C=C[C@@H](COC2OC(CO)C(O)C(O)C2O)O1 (some centres undefined) | > 100 |
| CC(C)=CCC[C@@H](C)c1c(O)c(O)c(C)c2nccnc12 | > 77.9 |
| O=C(OCc1ccccc1)N1CCNCCN(C(=O)OCc2ccccc2)CCNCC1 | 33.4 |
| COC(=O)C1=C(C(=O)OC)SC(=C2SCSC3=C2SC(C(=O)OC)=C(C(=O)OC)C32SC3=C(CCCC3)S2)S1 | > 100 |
| COc1nncc2[nH]c(-c3ccccc3)cc12 | > 100 |
| O=S(=O)(c1ccccc1)c1cccc2c1NCCC2 | > 100 |
| COP(=O)(OC)C1=c2c(C)noc2=C2C=COC2C1=O (centres undefined) | > 100 |
| CCOC(=O)N1CCN(Cc2cc(=O)n3ccc(C)cc3n2)CC1 | > 100 |
| COc1cccc(C2SC(N)=Nc3c2c(C)nn3C(=O)c2ccccc2O)c1 (centres undefined) | > 10 |
| N#CC(NCc1cccc(CNC(C#N)c2ccccc2)c1)c1ccccc1 (centres undefined) | > 100 |
